Structures can show the parent of a compound that is named as a salt.
How the values were obtained:
Conditions in all cases: 24 h
U2OS [1] = test: mean HPG incorporation (global translation) relative to DMSO (% of DMSO); higher = more protein synthesis
Description: (§1)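 Validation screen in U2OS cells: hits tested at 1, 3 and 10 uM for 24 h in duplicate plates. Translation was read by OPP incorporation (1 h pulse) and HPG incorporation (30 min in methionine-free medium), quantified by high-throughput microscopy alongside nuclei counts. All values are normalised to DMSO (= 100).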

U2OS [2] = test: mean OPP incorporation (global translation) relative to DMSO (% of DMSO); higher = more protein synthesis
Description: as §1

U2OS [3] = test: nuclei count in OPP assay relative to DMSO (% of DMSO); higher = more viable cells
Description: as §1

U2OS [4] = test: nuclei count in HPG assay relative to DMSO (% of DMSO); higher = more viable cells
Description: as §1

Row | SMILES | mean HPG incorporation (U2OS [1]; 1 µM) | mean HPG incorporation (U2OS [1]; 3 µM) | mean HPG incorporation (U2OS [1]; 10 µM) | mean OPP incorporation (U2OS [2]; 1 µM) | mean OPP incorporation (U2OS [2]; 3 µM) | mean OPP incorporation (U2OS [2]; 10 µM) | nuclei count in OPP assay (U2OS [3]; 1 µM) | nuclei count in OPP assay (U2OS [3]; 3 µM) | nuclei count in OPP assay (U2OS [3]; 10 µM) | nuclei count in HPG assay (U2OS [4]; 1 µM) | nuclei count in HPG assay (U2OS [4]; 3 µM) | nuclei count in HPG assay (U2OS [4]; 10 µM)
1 | CCOc1cc(C(=O)Nc2ccc(Cl)c(-c3nc4ccccc4[nH]3)c2)cc(OCC)c1OCC [SANT-2] | 97.5 | 92.7 | 74.1 | 117 | 114 | 121 | 102 | 109 | 104 | 102 | 105 | 97.5
2 | CCCc1cc(C)[nH]c(=O)c1CNC(=O)c1cc(-c2ccc(N3CCN(C(C)C)CC3)nc2)cc2c1cnn2C(C)C [UNC1999] | 111 | 119 | 77.1 | 108 | 119 | 122 | 89.3 | 93.6 | 73.9 | 93.7 | 94.7 | 80.6
3 | Cc1cn(-c2cc(NC(=O)c3ccc(C)c(Nc4nccc(-c5cccnc5)n4)c3)cc(C(F)(F)F)c2)cn1 [Nilotinib (AMN-107)] | 95 | 93.5 | 92.5 | 112 | 120 | 116 | 96.6 | 94.2 | 80.2 | 101 | 91.3 | 98.5
4 | COc1cc(NC(=O)c2ccccn2)ccc1Cl | 106 | 113 | 116 | 83.8 | 79.6 | 70.9 | 105 | 91 | 88.2 | 103 | 95 | 96.2
5 | CC(C)n1nc(-c2cc3cc(O)ccc3[nH]2)c2c(N)ncnc21 [Torkinib (PP242)] | 42.9 | 32.7 | 30.9 | 58.4 | 37.4 | 27.3 | 96 | 81.7 | 74.7 | 96.6 | 83 | 76.6
6 | CNC(=O)c1cccc(-c2ccc3c(N4CCOC[C@@H]4C)nc(N4CCOC[C@@H]4C)nc3n2)c1 [AZD2014] | 44.3 | 36.7 | 34.8 | 57.6 | 36.3 | 35.6 | 85.4 | 79.4 | 72.2 | 84.1 | 78 | 75
7 | Cc1cc(CS(=O)(=O)c2ccccc2)cc(OCc2ccc(CN3CCC[C@@H]3CO)cc2)c1 [PF-543] | 97.1 | 81.9 | 89.6 | 111 | 117 | 130 | 104 | 98.9 | 94.3 | 102 | 99.2 | 92.2
8 | COc1nc(-c2ccc3c(c2)OCO3)n(-c2ccc(NC(=O)CSc3ccccc3)cc2)n1 [SecinH3] | 107 | 100 | 93.3 | 106 | 117 | 121 | 105 | 105 | 98.9 | 107 | 96.8 | 100
9 | CCN(CC)CCOc1ccc(C(=C(Cl)c2ccccc2)c2ccccc2)cc1 [Clomiphene citrate (Z,E)] | 90.2 | 115 | 123 | 116 | 124 | 136 | 88 | 98.6 | 93.3 | 91.3 | 95.3 | 86.7
10 | COc1ccccc1S(=O)(=O)Nc1ccc2c(c1)CN(C)C(=O)N2 [PFI-1] | 95.7 | 93.2 | 87 | 83.4 | 56.2 | 45.9 | 99.5 | 106 | 106 | 103 | 101 | 101
11 | C=CC[C@@H]1/C=C(\C)C[C@H](C)C[C@H](OC)[C@H]2O[C@@](O)(C(=O)C(=O)N3CCCC[C@H]3C(=O)O[C@H](/C(C)=C/[C@@H]3CC[C@@H](O)[C@H](OC)C3)[C@H](C)[C@@H](O)CC1=O)[C@H](C)C[C@@H]2OC [FK-506 (Tacrolimus)] | 121 | 125 | 133 | 115 | 123 | 134 | 98.7 | 100 | 93.3 | 102 | 98.7 | 99.9
12 | CC(C)(C)c1nc(-c2cccc(NS(=O)(=O)c3c(F)cccc3F)c2F)c(-c2ccnc(N)n2)s1 | 50.8 | 48 | 106 | 102 | 97.2 | 114 | 101 | 102 | 104 | 96.6 | 100 | 104
13 | COc1cc2c(cc1C(F)(F)F)N(C(=O)Nc1cc(F)cc(-c3cccnc3)c1)CC2 | 95.1 | 98.3 | 74.3 | 102 | 112 | 117 | 96.9 | 93.9 | 88.4 | 95.9 | 95 | 89
14 | CC(C)n1nc(-c2ccc3oc(N)nc3c2)c2c(N)ncnc21 [INK 128 (MLN0128)] | 32.9 | 29.4 | 28.2 | 28.2 | 29.2 | 30 | 79.2 | 68.8 | 69.8 | 76 | 80.6 | 72.8

Source: the supplement of paper PMC8183993
